Data from patent publication US20240082212A1, “USE OF MDMA FOR TREATMENT OF STRESS-RELATED DISORDERS” (priority 2022, published 2024).
“Also recorded” adds a separate entry of the source.

Assays:
cortical neurons = assay: Neurite outgrowth in embryonic rat cortical neuron cultures; assay type: cell-based; conditions: any tested concentration (0.001 to 10000 nM), 3 days, vs vehicle
Outline: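 Cortical neurons from E17 Wistar rat embryos were treated with compound for 3 days, then fixed and stained for βIII-tubulin. Neurite count, total length and branch points per neuron were measured by high-content imaging. Values are expressed as % of vehicle, n=12 wells from two cultures, with ANOVA and Dunnett's test.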

CD (Sprague Dawley) rats = assay: Rat functional observation battery (FOB) neurobehavioral evaluation after cumulative SC dosing; assay type: in vivo
Method: The observations were assessed through a rat functional observation battery (FOB) and continuous physiological measurements on the day of cumulative dosing, which are provided in further detail below.
Methods. A total of 42 adult male CD® (Sprague Dawley) rats (Charles River Laboratories) were surgically implanted with DSI radiotelemetry devices by personnel at Charles River Laboratories Raleigh, NC, per their test site SOPs. Telemetry devices supported continuous recording of temperature, activity, blood pressure and heart rate. Telemeterized rats were shipped to the Charles River Laboratories testing facility (Mattawan, MI) and acclimated to the environment for at least 1 week prior to experimentation. Animals were pair-housed in solid bottom cages with nonaromatic bedding. On the dosing day, animals were singly housed and then returned to the paired cohort following the dosing/telemetry recording phase. Diet (Lab Diet® Certified Rodent Diet #5CR4) and tap water via an automatic water system were available ad libitum, except during designated procedures. Temperature and humidity were maintained according to the Testing Facility SOP. Animals were randomized into treatment groups using a standard, by weight, measured value randomization procedure. Body weight was determined for each rat prior to dosing.
As illustrated in the Table, a total of 36 rats were included in the study. The vehicle and 2 test article doses were administered in a volume of 1 mL/kg to each of 3 groups of n=12 telemeterized rats via subcutaneous injection four times on a given day, followed by neurobehavioral evaluations. This series was repeated 3 times on study. Each group received all 3 dose levels of the applicable test or control article in ascending order with a 1-week washout between dose levels.
Mortality/cage side clinical observations were conducted for all study animals at least twice daily beginning upon receipt through termination, except on days of receipt and termination where frequency was at least once daily. Detailed clinical observations were conducted for all study animals prior to each of the four cumulative doses in a series. Individual body weights were conducted for all study animals at transfer, prior to randomization, on the day of dosing on each of the 3 cycles of dosing. The body weights recorded at transfer and prior to randomization are not reported but are maintained in the study file. Veterinary care was available throughout the course of the study, and animals were examined by the veterinary staff as needed based on clinical signs or other changes. All animals were provided with HydroGel the night prior to their respective dosing days to potentially mitigate any animal welfare issues related to fluid loss/dehydration.
Neurobehavioral evaluations (blinded) were conducted for all study animals 1 hour following the last (4th) cumulative dose of the series. The neurobehavioral parameters evaluated included: activity measurements (arousal/alertness, posture/body carriage, stereotypy, rearing, and appearance), autonomic measurements (exophthalmus, lacrimation, erected fur, pupil response, salivation, defecation, and palpebral closure/ptosis), excitability measurements (vocalizations, startle response, ease of removal, handling reactivity, and convulsions), neuromuscular measurements (gait/mobility, grip strength/response, air righting reflex, tremor, and body tone), physiological measurements (respiration and body temperature), and sensorimotor measurements (touch response/tactile reflex and thermal response).

Serotonin 5-HT2B = Serotonin 5-HT2B (Homo sapiens, UniProt P41595); assay: Eurofins Panlabs radioligand binding panel, serotonin 5-HT2B; conditions: 0.3 nM to 10 μM, duplicate
Chain of Serotonin 5-HT2B (P41595 whole entry): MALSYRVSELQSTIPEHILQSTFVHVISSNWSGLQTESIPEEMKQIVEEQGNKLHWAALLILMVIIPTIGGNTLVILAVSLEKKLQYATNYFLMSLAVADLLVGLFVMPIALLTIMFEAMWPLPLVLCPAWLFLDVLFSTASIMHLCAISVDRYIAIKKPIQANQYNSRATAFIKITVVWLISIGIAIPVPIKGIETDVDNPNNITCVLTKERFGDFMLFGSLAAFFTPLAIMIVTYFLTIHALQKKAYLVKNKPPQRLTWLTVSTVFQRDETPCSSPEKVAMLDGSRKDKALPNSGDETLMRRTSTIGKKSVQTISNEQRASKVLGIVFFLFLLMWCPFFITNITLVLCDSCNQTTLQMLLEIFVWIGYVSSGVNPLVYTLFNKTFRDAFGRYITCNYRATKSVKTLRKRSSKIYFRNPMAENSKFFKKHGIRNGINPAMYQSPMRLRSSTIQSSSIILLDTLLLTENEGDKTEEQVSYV

[1] = 1 h after last of 4 hourly SC injections, R-MDMA and racemic MDMA 10, 20 mg/kg/day, S-MDMA 5, 10 mg/kg/day
[2] = 1 h after last of 4 hourly SC injections, racemic MDMA 10, 20 mg/kg/day, S-MDMA 5, 10 mg/kg/day
[3] = FOB, cumulative SC dosing, dose groups stated in the value

CNC(C)Cc1ccc2c(c1)OCO2 (single isomer, unassigned) [S-MDMA, S(+)-MDMA]
neurite number (#) (cortical neurons): did not significantly alter | neurite total length (μm) (cortical neurons): did not significantly alter | total number of branch points (#) (cortical neurons): did not significantly alter | arousal/alertness and rearing (CD (Sprague Dawley) rats; [1]): general increase in overall levels of arousal/alertness and rearing | ease of removal from the home cage and handling reactivity (excitability) (CD (Sprague Dawley) rats; [1]): Dose-dependent increased difficulty in removal from the home cage and increased handling reactivity | forelimb grip strength (CD (Sprague Dawley) rats; [1]): dose-dependent statistically significant decreases in forelimb grip strength | salivation and erected fur (autonomic) (CD (Sprague Dawley) rats; [1]): Dose-dependent increased salivation and erected fur | unkempt appearance (CD (Sprague Dawley) rats; [1]): increased incidence of unkempt appearance in a dose-dependent manner | stereotypies (mouth movements/weaving, circling/retropulsion, sniffing) (CD (Sprague Dawley) rats; 1 h after last of 4 hourly SC injections, highest doses: S-MDMA 10, racemic-MDMA 20 mg/kg/day, R-MDMA 10, 20 mg/kg/day): observed in animals treated with S-MDMA and racemic-MDMA only at the highest tested doses; also recorded: only one S-MDMA-treated animal was reported with stereotypical behaviors | general gait/mobility changes (CD (Sprague Dawley) rats; [2]): General gait/mobility changes were only observed | respiration (CD (Sprague Dawley) rats; [2]): Rapid respiration was noted | Rank Order Activity Measurement Effects (CD (Sprague Dawley) rats; [3]): S-MDMA (5 mg/kg/day) < R-MDMA (10 mg/kg/day) < Rac.-MDMA (10 mg/kg/day); also recorded: Rac.-MDMA (20 mg/kg/day) < S-MDMA (10 mg/kg/day) < R-MDMA (20 mg/kg/day); also recorded: S-MDMA (0 mg/kg/day) < S-MDMA (5 mg/kg/day) < S-MDMA (10 mg/kg/day); also recorded: Rac.-MDMA (20 mg/kg/day) < S-MDMA (10 mg/kg/day) < R-MDMA (10 mg/kg/day) | Rank Order Autonomic Measurement Effects (CD (Sprague Dawley) rats; [3]): R-MDMA (10 mg/kg/day) < S-MDMA (5 mg/kg/day) < Rac.-MDMA (10 mg/kg/day); also recorded: R-MDMA (20 mg/kg/day) < S-MDMA (10 mg/kg/day) < Rac-MDMA (20 mg/kg/day); also recorded: S-MDMA (0 mg/kg/day) < S-MDMA (5 mg/kg/day) < S-MDMA (10 mg/kg/day); also recorded: R-MDMA (10 mg/kg/day) < S-MDMA (10 mg/kg/day) = Rac-MDMA (20 mg/kg/day) | Rank Order Excitability Measurement Effects (CD (Sprague Dawley) rats; [3]): R-MDMA (10 mg/kg/day) < S-MDMA (5 mg/kg/day) < Rac.-MDMA (10 mg/kg/day); also recorded: R-MDMA (20 mg/kg/day) = S-MDMA (10 mg/kg/day) < Rac-MDMA (20 mg/kg/day); also recorded: S-MDMA (0 mg/kg/day) < S-MDMA (5 mg/kg/day) < S-MDMA (10 mg/kg/day); also recorded: R-MDMA (10 mg/kg/day) < S-MDMA (10 mg/kg/day) < Rac-MDMA (20 mg/kg/day) | Rank Order Neuromuscular Measurement Effects (CD (Sprague Dawley) rats; [3]): R-MDMA (10 mg/kg/day) < S-MDMA (5 mg/kg/day) < Rac.-MDMA (10 mg/kg/day); also recorded: R-MDMA (20 mg/kg/day) = S-MDMA (10 mg/kg/day) < Rac-MDMA (20 mg/kg/day); also recorded: S-MDMA (0 mg/kg/day) < S-MDMA (5 mg/kg/day) = S-MDMA (10 mg/kg/day); also recorded: R-MDMA (10 mg/kg/day) < S-MDMA (10 mg/kg/day) < Rac-MDMA (20 mg/kg/day) | Rank Order Physiological Measurement Effects (CD (Sprague Dawley) rats; [3]): R-MDMA (10 mg/kg/day) < S-MDMA (5 mg/kg/day) < Rac.-MDMA (10 mg/kg/day); also recorded: R-MDMA (20 mg/kg/day) < S-MDMA (10 mg/kg/day) = Rac-MDMA (20 mg/kg/day); also recorded: S-MDMA (0 mg/kg/day) < S-MDMA (5 mg/kg/day) < S-MDMA (10 mg/kg/day); also recorded: R-MDMA (10 mg/kg/day) < S-MDMA (10 mg/kg/day) = Rac-MDMA (20 mg/kg/day) | Rank Order Sensorimotor Measurement Effects (CD (Sprague Dawley) rats; [3]): S-MDMA (5 mg/kg/day) < Rac-MDMA (10 mg/kg/day) < R-MDMA (10 mg/kg/day); also recorded: S-MDMA (10 mg/kg/day) < Rac-MDMA (20 mg/kg/day) < R-MDMA (20 mg/kg/day); also recorded: S-MDMA (0 mg/kg/day) < S-MDMA (10 mg/kg/day) < S-MDMA (5 mg/kg/day) | thermal response times (CD (Sprague Dawley) rats; at levels at least two-fold that of vehicle-treated groups, 1 h after last of 4 hourly SC injections): Statistically significant increases in thermal response times | IC50 (Serotonin 5-HT2B; IC50, 10 half-log concentrations): 12 µM | Ki (Serotonin 5-HT2B; Ki, 10 half-log concentrations): 7.65 µM
